# Measurements from patent US20020193404A1, “Use of bicyclic heterocycles for the treatment and prevention of arterial thrombotic disease” (priority 2001, published 2002).
# pIC50: −log10 of the molar value.
# Tests used:
# [1] = tested on: human citrated plasma; assay: aPTT (activated partial thromboplastin time) prolongation; settings: concentration at which the aPTT time was double that of the control, 37° C.
# Description: The inhibiting effect of the two substances on blood clotting was measured by determining the prolongation of aPTT (activated partial thromboplastin time) as follows:
# Plasma, from citrated human blood
# PTT reagent, Boehringer Mannheim (524298)
# Calcium solution (0.025 mol/L), Behring Werke, Marburg (ORH 056/57)
# Diethyl barbiturate acetate buffer, Behring Werke, Marburg (ORWH 60/61)
# The aPTT was determined using a Biomatic—B 10 coagulometer made by Messrs Desaga (Wiesloch). The test substance was placed in the test tubes prescribed by the manufacturer with 0.1 ml of human citrated plasma and 0.1 ml of PTT reagent. The preparations were incubated for three minutes at 37° C. The clotting reaction was started by the addition of 0.1 ml of calcium solution. The time taken for the plasma to clot was measured by the apparatus as the calcium solution was added. Analogous test preparations to which 0.1 ml of diethyl barbiturate acetate buffer had been added were used as controls. According to the definition of EC200, the substance concentration at which the aPTT time was double that of the control was determined using a dosage-activity curve.
# [2] = molecular target: T1, human fibrinogen receptor (glycoprotein IIb/IIIa) (Homo sapiens, UniProt P05106+P08514); assay: Inhibition of binding of 3H-BIBU 52 to human thrombocytes; settings: 3H-BIBU 52 5 nM, human thrombocytes in plasma, ambient temperature, 20 minutes
# T1 construct: endogenous in cells; host or cells: human thrombocytes in platelet-rich plasma from donor blood
# Description: The inhibiting effect on the human fibrinogen receptor (glycoprotein IIb/IIIa) was investigated as follows:
# Inhibition of Binding of ^3H-BIBU 52 to Human Thrombocytes:
# A suspension of human thrombocytes was incubated with ^3H-BIBU 52 [=(3S,5S)-5-[(4′-amidino-4-biphenylyl)oxymethyl]-3-[(carboxy)methyl]-2-pyrrolidinone[3-^3H-4-biphenylyl]], which replaces the ligand ^125I-fibrinogen known from the literature (cf. DE-A-4 214 245), and various concentrations of the substance being tested. The free and bound ligands were separated by centrifugation and quantitatively determined by scintillation counting. The inhibition of the ^3H-BIBU 52 binding by the test substance was determined from the measurements obtained. To do this, donor blood was taken from an anticubital vein and anticoagulated with trisodium citrate (final concentration: 13 mM). The blood was centrifuged for ten minutes at 170× g and the supernatant platelet-rich plasma (PRP) was removed. The remaining blood was sharply centrifuged once more to obtain plasma. The PRP was diluted 1:10 with autologous plasma. […] 100 μl thereof were assayed in order to quantify the free ligand. […] The residual plasma still remaining in the pellet was determined from the ^14C content while the bound ligand was determined from the ^3H measurement. […]
# T1 sequence (P08514 32-887 limits assumed): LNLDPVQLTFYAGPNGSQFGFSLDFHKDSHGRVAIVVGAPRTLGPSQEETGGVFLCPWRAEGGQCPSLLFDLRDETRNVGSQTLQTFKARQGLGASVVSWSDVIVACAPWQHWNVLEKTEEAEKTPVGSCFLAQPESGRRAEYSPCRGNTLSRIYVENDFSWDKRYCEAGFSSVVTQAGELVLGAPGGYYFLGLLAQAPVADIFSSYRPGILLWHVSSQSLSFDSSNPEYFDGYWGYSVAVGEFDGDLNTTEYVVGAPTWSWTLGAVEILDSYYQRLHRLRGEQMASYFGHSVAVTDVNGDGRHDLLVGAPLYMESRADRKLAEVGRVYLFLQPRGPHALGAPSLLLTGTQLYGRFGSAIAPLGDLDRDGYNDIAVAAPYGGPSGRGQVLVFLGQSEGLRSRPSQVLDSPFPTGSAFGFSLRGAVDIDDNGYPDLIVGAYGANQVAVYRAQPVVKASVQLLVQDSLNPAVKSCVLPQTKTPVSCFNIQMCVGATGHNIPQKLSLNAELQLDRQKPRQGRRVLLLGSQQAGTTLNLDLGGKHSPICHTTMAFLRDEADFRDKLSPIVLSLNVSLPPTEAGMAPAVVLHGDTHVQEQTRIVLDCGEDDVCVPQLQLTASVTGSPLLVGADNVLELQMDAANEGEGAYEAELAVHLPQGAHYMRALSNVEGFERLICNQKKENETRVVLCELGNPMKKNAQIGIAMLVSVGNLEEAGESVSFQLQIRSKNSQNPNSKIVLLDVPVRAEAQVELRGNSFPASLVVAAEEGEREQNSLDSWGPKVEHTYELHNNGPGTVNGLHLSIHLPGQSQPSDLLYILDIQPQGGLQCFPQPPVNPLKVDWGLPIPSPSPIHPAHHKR
# T1 sequence (P08514 891-1039 partner limits assumed): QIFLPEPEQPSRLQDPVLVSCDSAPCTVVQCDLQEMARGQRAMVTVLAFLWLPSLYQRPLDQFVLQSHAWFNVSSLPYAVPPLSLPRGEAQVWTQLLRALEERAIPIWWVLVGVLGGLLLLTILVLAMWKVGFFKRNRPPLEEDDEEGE
# T1 sequence (P05106 27-788): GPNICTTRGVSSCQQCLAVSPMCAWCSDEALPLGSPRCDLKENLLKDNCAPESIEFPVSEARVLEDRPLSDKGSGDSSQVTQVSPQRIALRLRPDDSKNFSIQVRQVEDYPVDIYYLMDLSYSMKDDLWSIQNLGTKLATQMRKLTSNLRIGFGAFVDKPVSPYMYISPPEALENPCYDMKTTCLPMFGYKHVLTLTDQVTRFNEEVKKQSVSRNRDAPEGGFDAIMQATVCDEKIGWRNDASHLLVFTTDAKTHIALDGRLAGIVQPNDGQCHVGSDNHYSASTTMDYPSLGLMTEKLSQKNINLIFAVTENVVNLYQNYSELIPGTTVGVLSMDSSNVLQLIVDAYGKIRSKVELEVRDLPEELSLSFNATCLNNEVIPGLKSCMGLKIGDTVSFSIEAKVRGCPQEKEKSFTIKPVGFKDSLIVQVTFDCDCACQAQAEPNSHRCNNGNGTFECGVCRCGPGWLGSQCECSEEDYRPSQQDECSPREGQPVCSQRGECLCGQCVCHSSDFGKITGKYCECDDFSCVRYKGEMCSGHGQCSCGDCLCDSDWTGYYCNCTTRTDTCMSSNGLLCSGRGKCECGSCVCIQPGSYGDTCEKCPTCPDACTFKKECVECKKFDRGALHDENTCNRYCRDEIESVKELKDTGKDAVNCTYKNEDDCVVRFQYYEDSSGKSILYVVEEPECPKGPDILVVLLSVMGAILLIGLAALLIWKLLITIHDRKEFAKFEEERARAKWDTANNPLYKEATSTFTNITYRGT
Structure (SMILES),aPTT (EC200) [1],pIC50 [2]
"Cn1c(COc2ccc(C(=N)N)cc2)nc2cc(N(CC(=O)O)S(=O)(=O)c3cccc4cccnc34)ccc21 [A, 1-methyl-2-[(4-amidinophenyl)-oxymethyl]-5-[N-(hydroxycarbonylmethyl)-quinoline-8-sulphonylamino]-benzimidazole]",0.013 µmol/L,8.22
"Cn1c(CNc2ccc(C(=N)N)cc2)nc2cc(N(CC(=O)O)S(=O)(=O)c3cccc4cccnc34)ccc21 [B, 1-methyl-2-[N-(4-amidinophenyl)-aminomethyl]-5-[N-(hydroxycarbonylmethyl)-quinoline-8-sulphonylamino]-benzimidazole]",0.026 µmol/L,7.31
